Molecular target: GluA1o-γ8 (GRIA1o-CACNG8 fusion construct; TARP γ8 dependent AMPA receptor) (Homo sapiens (Human), UniProt P42261+Q8WXS5)
Test: Calcium flux assay (FLIPR), inhibition of glutamate response of GluA1o-γ8 channel
Type: cell-based
Conditions: HEK293 cells stably expressing GRIA1o-CACNG8 fusion; 15 μM glutamate; pIC50 = negative log of IC50 in molar; read-out: GluR1-γ8 (pIC50) (converted)
Procedure, shortened: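 Potency is the midpoint of a four-parameter logistic fit to control-normalized FLIPR calcium responses elicited by 15 μM glutamate. Stable HEK293 cells carried a fused GluA1o-γ8 construct and were preincubated with compound and calcium dye in pH 7.4 HEPES buffer.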

Chain of GluA1o-γ8 (GRIA1o-CACNG8 fusion construct; TARP γ8 dependent AMPA receptor) (P42261 other isoform, or with tags, fused parts or gaps): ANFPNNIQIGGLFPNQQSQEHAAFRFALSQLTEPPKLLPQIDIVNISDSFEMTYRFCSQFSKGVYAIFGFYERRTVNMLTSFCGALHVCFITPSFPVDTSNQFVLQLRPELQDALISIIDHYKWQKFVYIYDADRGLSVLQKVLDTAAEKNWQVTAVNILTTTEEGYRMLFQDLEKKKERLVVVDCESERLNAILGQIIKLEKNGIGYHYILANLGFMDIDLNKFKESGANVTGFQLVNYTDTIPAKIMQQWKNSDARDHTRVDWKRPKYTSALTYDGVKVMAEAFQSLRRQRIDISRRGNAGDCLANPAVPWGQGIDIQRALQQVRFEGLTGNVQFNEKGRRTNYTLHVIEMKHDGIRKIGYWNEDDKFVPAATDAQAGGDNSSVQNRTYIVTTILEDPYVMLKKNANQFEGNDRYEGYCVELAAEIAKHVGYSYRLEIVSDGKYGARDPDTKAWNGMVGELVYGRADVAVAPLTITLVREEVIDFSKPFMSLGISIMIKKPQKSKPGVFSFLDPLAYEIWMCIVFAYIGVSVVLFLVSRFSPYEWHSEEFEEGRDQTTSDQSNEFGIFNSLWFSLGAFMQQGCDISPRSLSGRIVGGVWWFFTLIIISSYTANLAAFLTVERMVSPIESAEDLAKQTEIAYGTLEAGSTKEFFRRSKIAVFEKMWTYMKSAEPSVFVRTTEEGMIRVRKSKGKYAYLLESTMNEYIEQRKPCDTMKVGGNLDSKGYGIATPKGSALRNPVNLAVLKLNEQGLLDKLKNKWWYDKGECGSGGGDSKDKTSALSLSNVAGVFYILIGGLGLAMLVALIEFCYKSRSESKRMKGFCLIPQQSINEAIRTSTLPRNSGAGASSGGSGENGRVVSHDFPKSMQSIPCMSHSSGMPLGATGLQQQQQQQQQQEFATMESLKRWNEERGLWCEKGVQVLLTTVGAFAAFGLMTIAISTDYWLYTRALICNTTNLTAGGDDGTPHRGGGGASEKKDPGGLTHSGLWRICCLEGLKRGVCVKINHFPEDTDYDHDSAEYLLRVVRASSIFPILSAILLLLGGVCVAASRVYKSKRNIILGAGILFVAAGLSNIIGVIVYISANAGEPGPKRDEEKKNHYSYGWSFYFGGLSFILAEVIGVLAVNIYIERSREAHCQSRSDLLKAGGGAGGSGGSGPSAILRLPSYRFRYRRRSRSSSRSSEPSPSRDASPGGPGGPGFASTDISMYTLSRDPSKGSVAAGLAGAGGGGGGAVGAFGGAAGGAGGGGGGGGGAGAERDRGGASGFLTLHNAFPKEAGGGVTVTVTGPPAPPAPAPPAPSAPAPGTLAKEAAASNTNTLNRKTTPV

Row | SMILES | IC50 [nM]
1 | O=c1[nH]c2ccc(-c3c(-c4ccccc4)nn4cnc(C(F)(F)F)cc34)cc2o1 [Example 223, 6-[2-Phenyl-5-(trifluoromethyl)pyrazolo[1,5-c]pyrimidin-3-yl]-3H-1,3-benzoxazol-2-one] | 501
2 | O=c1[nH]c2ccc(-c3c(-c4ccccc4)nn4cnc(C(F)(F)F)cc34)cc2s1 [Example 224, 6-[2-phenyl-5-(trifluoromethyl)pyrazolo[1,5-c]pyrimidin-3-yl]-3H-1,3-benzothiazol-2-one] | 20
3 | c1ccc(-c2nn3c(N4CCOCC4)nccc3c2-c2ccc3[nH]ncc3c2)cc1 [Example 233, 4-[3-(1H-Indazol-5-yl)-2-phenyl-pyrazolo[1,5-c]pyrimidin-7-yl]morpholine] | 0.398
4 | COC1CCN(c2nccc3c(-c4ccc5[nH]ncc5c4)c(-c4ccccc4)nn23)CC1 [Example 234, 3-(1H-Indazol-5-yl)-7-(4-methoxy-1-piperidyl)-2-phenyl-pyrazolo[1,5-c]pyrimidine] | 0.631
5 | CC(C)c1nn2c(N3CCOCC3)ncc(F)c2c1-c1ccc2[nH]ncc2c1 [Example 236, 4-[4-Fluoro-3-(1H-indazol-5-yl)-2-isopropyl-pyrazolo[1,5-c]pyrimidin-7-yl]morpholine] | 158
6 | COC1CCN(c2nccc3c(-c4ccc5[nH]ncc5c4)c(C(C)C)nn23)CC1 [Example 237, 3-(1H-indazol-5-yl)-2-isopropyl-7-(4-methoxy-1-piperidyl)pyrazolo[1,5-c]pyrimidine] | 126
7 | CC(C)c1nn2c(N3CCOCC3)nccc2c1-c1ccc2[nH]ncc2c1 [Example 238, 4-[3-(1H-Indazol-5-yl)-2-isopropyl-pyrazolo[1,5-c]pyrimidin-7-yl]morpholine] | 398
8 | Cc1cnc(N2CCOCC2)n2nc(C(C)C)c(-c3ccc4[nH]ncc4c3)c12 [Example 239, 4-[3-(1H-Indazol-5-yl)-2-isopropyl-4-methyl-pyrazolo[1,5-c]pyrimidin-7-yl]morpholine] | 39.8
9 | CC(C)c1nn2c(N3CCOCC3)nccc2c1-c1ccc2[nH]c(=O)sc2c1 [Example 240, 6-(2-Isopropyl-7-morpholino-pyrazolo[1,5-c]pyrimidin-3-yl)-3H-1,3-benzothiazol-2-one] | 15.8
10 | COC1CCN(c2nccc3c(-c4ccc5[nH]c(=O)sc5c4)c(C(C)C)nn23)CC1 [Example 241, 6-[2-Isopropyl-7-(4-methoxy-1-piperidyl)pyrazolo[1,5-c]pyrimidin-3-yl]-3H-1,3-benzothiazol-2-one] | 2.51
11 | O=c1[nH]c2ccc(-c3c(-c4ccccc4)nn4c(N5CCOCC5)nccc34)cc2s1 [Example 242, 6-(7-Morpholino-2-phenyl-pyrazolo[1,5-c]pyrimidin-3-yl)-3H-1,3-benzothiazol-2-one] | 0.0501
12 | Cc1cnc(N2CCOCC2)n2nc(C(C)C)c(-c3ccc4[nH]c(=O)sc4c3)c12 [Example 243, 6-(2-Isopropyl-4-methyl-7-morpholino-pyrazolo[1,5-c]pyrimidin-3-yl)-3H-1,3-benzothiazol-2-one] | 3.98
13 | O=c1[nH]c2ccc(-c3c(-c4ccccc4)nc4cnc(C(F)(F)F)cn34)cc2s1 [Example 245, 6-[2-Phenyl-6-(trifluoromethyl)imidazo[1,2-a]pyrazin-3-yl]-3H-1,3-benzothiazol-2-one] | 12.6
14 | O=C1CN(c2nccn3c(-c4ccc5c(c4)CC(=O)N5)c(C(=O)c4ccccc4)nc23)CCN1 [Example 246, 5-[2-Benzoyl-8-(3-oxopiperazin-1-yl)imidazo[1,2-a]pyrazin-3-yl]indolin-2-one] | 31.6
15 | COc1nccn2c(-c3ccc4c(c3)CC(=O)N4)c(-c3ccc(F)cc3)nc12 [Example 247, 5-[2-(4-Fluorophenyl)-8-methoxy-imidazo[1,2-a]pyrazin-3-yl]indolin-2-one] | 79.4
16 | Nc1nccn2c(-c3ccc4c(c3)CC(=O)N4)c(-c3ccc(F)cc3)nc12 [Example 248, 5-[8-Amino-2-(4-fluorophenyl)imidazo[1,2-a]pyrazin-3-yl]indolin-2-one] | 5010
17 | O=c1[nH]c2ccc(-c3c(-c4ccc(F)cc4)nc4c(O)nccn34)cc2[nH]1 [Example 249, 5-[2-(4-Fluorophenyl)-8-hydroxy-imidazo[1,2-a]pyrazin-3-yl]-1,3-dihydrobenzimidazol-2-one] | 1580
18 | CC(=O)N[C@@H]1CCN(c2nccn3c(-c4ccc5c(c4)CC(=O)N5)c(-c4ccc(F)cc4)nc23)C1 [Example 250, N-[(3R)-1-[2-(4-Fluorophenyl)-3-(2-oxoindolin-5-yl)imidazo[1,2-a]pyrazin-8-yl]pyrrolidin-3-yl]acetamide] | 39.8

Second part, the compound after the results:

Row | IC50 [nM] | SMILES
19 | 501 | CC(C)(C)c1nn2cnc(C(F)(F)F)cc2c1-c1ccc2c(c1)CC(=O)N2 [Example 225, 5-[2-tert-Butyl-5-(trifluoromethyl)pyrazolo[1,5-c]pyrimidin-3-yl]indolin-2-one]
20 | 794 | O=C1Cc2cc(-c3c(C4CCC4)nn4cnc(C(F)(F)F)cc34)ccc2N1 [Example 226, 5-[2-Cyclobutyl-5-(trifluoromethyl)pyrazolo[1,5-c]pyrimidin-3-yl]indolin-2-one]
21 | 1580 | CC(C)c1nn2cnc(C(F)(F)F)cc2c1-c1ccc2c(c1)CC(=O)N2 [Example 227, 5-[2-Isopropyl-5-(trifluoromethyl)pyrazolo[1,5-c]pyrimidin-3-yl]indolin-2-one]
22 | 39800 | O=C1Cc2cc(-c3c(C4CC4)nn4cnc(C(F)(F)F)cc34)ccc2N1 [Example 228, 5-[2-Cyclopropyl-5-(trifluoromethyl)pyrazolo[1,5-c]pyrimidin-3-yl]indolin-2-one]
23 | 15.8 | O=c1[nH]c2ccc(-c3c(C4CCC4)nn4cnc(C(F)(F)F)cc34)cc2s1 [Example 229, 6-[2-Cyclobutyl-5-(trifluoromethyl)pyrazolo[1,5-c]pyrimidin-3-yl]-3H-1,3-benzothiazol-2-one]
24 | 398 | O=c1[nH]c2ccc(-c3c(C4CC4)nn4cnc(C(F)(F)F)cc34)cc2s1 [Example 230, 6-[2-Cyclopropyl-5-(trifluoromethyl)pyrazolo[1,5-c]pyrimidin-3-yl]-3H-1,3-benzothiazol-2-one]
25 | 63.1 | CC(C)c1nn2cnc(C(F)(F)F)cc2c1-c1ccc2[nH]c(=O)sc2c1 [Example 231, 6-[2-Isopropyl-5-(trifluoromethyl)pyrazolo[1,5-c]pyrimidin-3-yl]-3H-1,3-benzothiazol-2-one]
26 | 316 | CC(C)(C)c1nn2cnc(C(F)(F)F)cc2c1-c1ccc2[nH]c(=O)sc2c1 [Example 232, 6-[2-tert-Butyl-5-(trifluoromethyl)pyrazolo[1,5-c]pyrimidin-3-yl]-3H-1,3-benzothiazol-2-one]
27 | 501 | CC(C)c1nn2c(N3CCOCC3)ncc(F)c2c1-c1ccc2c(c1)CC(=O)N2 [Example 235, 5-(4-Fluoro-2-isopropyl-7-morpholino-pyrazolo[1,5-c]pyrimidin-3-yl)indolin-2-one]
28 | 79.4 | Cc1cnc(N2CCOCC2)n2nc(C(C)C)c(-c3ccc4c(c3)CC(=O)N4)c12 [Example 244, 5-(2-Isopropyl-4-methyl-7-morpholino-pyrazolo[1,5-c]pyrimidin-3-yl)indolin-2-one]

— patent US10513523B2, “Imidazopyrazines and pyrazolopyrimidines and their use as AMPA receptor modulators” (Janssen Pharmaceutica NV, priority 2015, dated 2019)
